Results reported in US8202886B2, “Small molecule E2F inhibitor” (H. Lee Moffitt Cancer Center and Research Institute, Inc., priority 2008, dated 2012).

Tests used:
[1] = test system: 8226-s; assay: MTS viability assay, 8226-s; assay type: cell-based; conditions: Homo sapiens; 8226-s parental
Experimental: (§1) Cells were collected 24 hours post drug exposure and extracts subjected to western blotting using antibodies to the indicated proteins. Cleavage of PARP indicates apoptosis.
(§2) To examine its effect on a range of commonly studied cell lines, the inventors utilized standard MTS assays to quantify cell viability following the therapeutic compound treatment. Cytotoxicity was determined using MTS assays, which were conducted using a CellTiter 96® AQueous One Cell Proliferation Assay Kit (Promega) following the published protocol. Cells in 0.1 ml volume were plated in triplicate into 96-well plates, 1×10^4 cells/well. the therapeutic compound was added and after 24 hours of incubation at 37° C., 20 μl of MTS dye was added to each well. Plates were read at 490 nm following 4 hrs MTS reaction time. The concentration of drug which produced a 50% inhibition of growth (IC50) was calculated from linear regression analysis of the linear portion of the growth curves.

[2] = test system: 8226-dox40; assay: MTS viability assay, 8226-dox40; assay type: cell-based; conditions: Homo sapiens
Experimental: as §1, §2

[3] = test system: 8226-MR20; assay: MTS viability assay, 8226-MR20; assay type: cell-based; conditions: Homo sapiens
Experimental: as §1, §2

[4] = test system: MCF-7; assay: Apo-BrdU TUNEL apoptosis assay, MCF-7; assay type: cell-based, human; conditions: 40-μM, 24-hrs
Source text: (§3) To determine if treatment with the therapeutic compound contributes to apoptosis, Cells were detached from culture plates by trypsin treatment, washed twice with PBS, and fixed in 70% ethanol. Fixed cells were washed twice with PBS and treated with RNase A and propidium iodide (PI). PI staining was examined using a Becton-Dickinson FACScan instrument and Cell Quest software. TUNEL assay for apoptosis utilized a Pharmingen APO-BRDU Kit. MTS (3-(4,5-dimethylthiazol-2-yl)-5-(3-carboxymethoxyphenyl)-2-(4-sulfophenyl)-2H-tetrazolium, inner salt) assays were conducted using a CellTiter 96® AQueous One Cell Proliferation Assay Kit (Promega).
A375, MDA-MB-231 (231), MCF-7 and human foreskin fibroblasts (HFF) cells were treated with 40-μM of the therapeutic compound for 24-hrs and subjected to a FACS based terminal deoxynucleotidyl transferase (TUNEL) assay (Apo-BrdU Kit from BD Pharmingen).

[5] = test system: A375 cells; assay: Propidium iodide flow cytometry, sub-G1 DNA content; assay type: cell-based, human; conditions: 40-μM
Source text: as §3

[6] = test system: WT MEFS; assay: Apoptosis (ApoBrdU, PARP western) in WT MEFs; assay type: cell-based, mouse
Experimental: FIG. 12A: MEFS derived from sibling WT and E2F4^−/− mice were treated for 24-hrs with the indicated doses of HLM006474. Apoptosis was determined using ApoBrdU (BD Pharmingen).
FIG. 12B: MEFS derived from sibling WT and E2F4^−/− mice were treated as in A subjected to western blotting using a PARP antibody or E2F4 antibody. PARP cleavage (as indicated by the arrow) is an independent measure of apoptosis.
To determine if the effect of the therapeutic compound is dependent upon E2F4, the inventors compared the therapeutic compound response of immortalized MEFs derived from E2F4-deficient mice with MEFS derived from wildtype siblings.

[7] = test system: A375 melanocytes; assay: Three-dimensional skin model of A375 proliferation and invasion; assay type: cell-based, human; conditions: for activated caspase-3 positive cells (IHC): day 2, 5 or 8; for proliferation and invasion of melanocytes (S-100 IHC): day 12, 16 and 20
Experimental: Culture inserts of differentiated full-thickness 3D skin reconstruction model of A375 melanoma cells were purchased from MatTek (Ashland, Mass.). These were prepared by culturing mixed suspensions of normal human epidermal keratinocytes and A375 cells (1:10 ratio) on fibroblast contracted collagen gels and allowing differentiation for approximately one week in serum free media to form a 3D skin-like structure. These cultures were treated with 0, 40 or 80 μM 6474 and harvested after 0, 2, 5, 8, 12, 16 and 20 days.
In this model, the highly metastatic A375 melanocytes were mixed with normal human keratinocytes and seeded on fibroblast-contracted collagen gels. The mixed cells were then induced to differentiate in serum free media to form three-dimensional, highly differentiated, full thickness skin-like tissues. After seven days of differentiation the cells were then treated with 0 (DMSO carrier alone), 40 or 80 μM the therapeutic compound. The three-dimensional models were then cultured for 2, 5, 8, 12, 16 and 20 days. At the appointed time, 3D cultures were fixed in formalin, paraffin embedded, sectioned and either stained with H&E or processed for immunohistochemistry (1HC) using antibodies against S-100 to measure expression of a melanocyte marker, E2F4 to determine if it were down regulated as in 2D culture, activated caspase-3 to measure apoptosis and […] to measure the proliferative index.

[8] = test system: lung cancer cell lines; assay: CT Blue Viability Assay, drug combinations; assay type: cell-based; conditions: combination with taxol
Experimental: The indicated lung cancer cell lines were exposed to taxol, cisplatin, or gemacitabine alone, the therapeutic compound alone, or a combination as indicated. These experiments and analysis were performed in the Experimental Therapeutics Core using the CT Blue Viability Assay.

[9] = test system: NCI60 cell lines; assay: NCI60 drug screen; assay type: cell-based; conditions: NCI standard concentration
Source text: FIG. 16: HLM006474 was submitted to the National Cancer Institutes Developmental Therapeutic Program NCI60 Drug Screening Program. […] Results are reported as mean growth percent less growth percent.
The therapeutic compound was submitted to the NCI60 drug screen.

[10] = test system: H1299; assay: Western blots of treated H1299 cells; assay type: cell-based
Experimental: (§4) In order to further examine the mechanism of action of the therapeutic compound four lung cancer cell lines were treated with various concentrations of drug and western blots performed on cell extracts after 24 hr.

[11] = test system: H460; assay: Western blots of treated H460 cells; assay type: cell-based
Experimental: as §4

[12] = test system: A549; assay: Western blots of treated A549 cells; assay type: cell-based
Experimental: as §4

[13] = test system: NSCLC lines; assay: Western blots of cell cycle proteins in NSCLC lines; assay type: cell-based; conditions: every cell line treated, 40 micromolar, 24 hrs
Experimental: The indicated NSCLC lines were treated with 40 micromolar the therapeutic compound and subjected western blotting 24 hrs later using the indicated antibodies.

[14] = test system: MCF7 cells; assay: RNase protection assay, MCF7; assay type: cell-based, human
Experimental: The indicated breast cancer lines were treated with 40 micromolar the therapeutic compound and subjected RNAse protection assay 24 hrs later using the indicated probes.
An RNase protection assay was performed to determine if downregulation of the Rb family members at the level of mRNA could account for the downregulation of the proteins. Two breast cancer cell lines were examined at 0, 3, 6, 9, 18 and 24 hr following the therapeutic compound treatment (FIG. 21).

[15] = 40 μM, listed as the therapeutic compound

For `CCOc1ccc(C(Nc2ccccn2)c2ccc3ccc(C)nc3c2O)cc1C` (stereo not shown) [HLM006474], the IC50 [1] was 36 ± 6 µM, the IC50 [2] was 31 ± 4 µM and the IC50 [3] was 46 ± 6 µM. The “apoptosis (TUNEL)” value [4] was “did not induce an obvious increase in apoptosis”, the “time at which increase in sub-G1 DNA content begins” value [5] was “approximately 9 hrs” and the “level of apoptosis in WT cells as compared to E2F4-deficient cells” value ([6]; 24-hrs, ApoBrdU) was “two-fold increase”. For the same molecule, the “concentration at which PARP cleavage is evident” value ([6]; E2F4 proficient MEFs) was 20 µM, the “effects on the other cells (fibroblasts and keratinocytes) of the 3D tissue” value [7] was “no obvious deleterious effects” and the “E2F4 levels (IHC)” value ([7]; 40 μM) was “clearly reduced”. For the same molecule, the Ki-67 staining ([7]; 40 μM, day 2, 5 and 8) was “decrease in the number of proliferative cells”, the “activated caspase-3 positive cells (IHC)” value ([7]; 40 μM) was “no detectable increase in apoptotic cells” and the “activated caspase-3 positive cells (IHC)” value [7, 15] was “no significant difference”. For the same molecule, the “proliferation and invasion of melanocytes (S-100 IHC)” value ([7]; 40 μM) was “very rare”, the “proliferation and invasion of melanocytes (S-100 IHC)” value [7, 15] was “significantly inhibited the proliferation and subsequent invasion” and the “melanocyte proliferation (H&E)” value ([7]; 80 μM) was “essentially no melanocyte proliferation”. The synergy with taxol [8] was “synergizes significantly”, the “growth inhibition in NCI60 cell lines” value [9] was “significantly growth inhibited” and the “Bcl-2 (western)” value ([10]; H1299, 40-μM) was “significant downregulation”. For the same molecule, the “Mcl-1 (western)” value ([10]; H1299, 40-μM) was “no change”, the “sensitivity (downregulation of E2F1 and E2F4, PARP cleavage)” value (“sensitivity” below) ([10]; H1299, various concentrations, 24 hr) was “very sensitive” and the “Bcl-2 or Mcl-2 (western)” value ([11]; H460, 40-μM) was “did not show changes”. The “sensitivity” value ([11]; H460, various concentrations, 24 hr) was “very sensitive”, the “Mcl-1 (western)” value ([12]; A549, 40-μM) was “downregulation of Mcl-1” and the “sensitivity” value ([12]; A549, various concentrations, 24 hr) was “limited sensitivity”. The “Rb (western)” value [13] was “down (at least modestly)”, the “Rb at the mRNA level” value ([14]; MCF7) was “no significant change” and the “p21 mRNA” value ([14]; MCF7) was “upregulated”. The “mRNA for p107” value ([14]; MCF7, 0-24 hr) was “repressed”.
